Results reported in patent publication US20140329833A1, “LYSINE DEMETHYLASE INHIBITORS FOR INFLAMMATORY DISEASES OR CONDITIONS” (ORYZON GENOMICS, S.A, priority 2011, published 2014).

Experiments:
[1] = system: dimethylated H3K4 in SH-SY5Y cells; assay: Western blot for H3K4 methylation in SH-SY5Y cells; assay type: cell-based; conditions: Dual-1 100 μM vs parnate 250 μM
Excerpt: FIG. 3 Compound Dual-1 Increases Histone Methylation.
B-actin was used as a loading control.

[2] = molecular target: T1, LSD1 (Homo sapiens, UniProt O60341); conditions: Ueda et al. (2009) J. Am. Chem. Soc. 131(48):17536-17537; cited from earlier work
[3] = molecular target: T1, LSD1; assay: LSD1 demethylase inhibition assay (Amplex Red peroxide/peroxidase-coupled); assay type: biochemical; design: purchased BPS Bioscience Inc; conditions: from the IC50 values for LSD1, MAO-A and MAO-B
Experimental: Compounds for use in the methods of the invention can be identified by their ability to inhibit LSD1. The ability of compounds to inhibit LSD1 can be tested as follows. Human recombinant LSD1 protein was purchased from BPS Bioscience Inc. In order to monitor LSD1 enzymatic activity and/or its inhibition rate by the LSD1 inhibitor(s) of interest, di-methylated H3-K4 peptide (Millipore) was chosen as a substrate.
Within the experiment, each concentration of inhibitor was tested in duplicate. […] The enzymatic reactions were set up in a 50 mM sodium phosphate, pH 7.4 buffer. At the end of the incubation, Amplex® Red reagent and horseradish peroxidase (HPR) solution were added to the reaction according to the recommendations provided by the supplier (Invitrogen), and left to incubate for 30 extra minutes at room temperature in the dark. A 1 μM H2O2 solution was used as a control of the kit efficiency. […] Arbitrary units were used to measure level of H2O2 produced in the absence and/or in the presence of inhibitor.
The maximum demethylase activity of LSD1 was obtained in the absence of inhibitor and corrected for background fluorescence in the absence of LSD1. The Ki (IC50) of each inhibitor was estimated at half of the maximum activity.

NC(=O)CN[C@H]1C[C@@H]1c1ccc(OCc2ccccc2)cc1 (racemic) [Compound 1]
potency at increasing global H3K4 methylation levels compared to tranylcypromine [1]: ten-fold or more potent
IC50 [2]: 2.5 µM
selectivity class (LSD1 vs MAO-A and MAO-B) [3]: dual LSD1/MAO-B selective inhibitors
